Experiments:
Assay in all cases: covalent labelling, streptavidin enrichment, LC-MS/MS
Settings in all cases: 30 uM probe, 1 h, mouse liver pieces
[1] = biological target: T1, monoamine oxidase A (MAOA) (Mus musculus, UniProt Q64133)
T1 construct: native, in intact mouse liver pieces
T1 sequence (Q64133 1-526): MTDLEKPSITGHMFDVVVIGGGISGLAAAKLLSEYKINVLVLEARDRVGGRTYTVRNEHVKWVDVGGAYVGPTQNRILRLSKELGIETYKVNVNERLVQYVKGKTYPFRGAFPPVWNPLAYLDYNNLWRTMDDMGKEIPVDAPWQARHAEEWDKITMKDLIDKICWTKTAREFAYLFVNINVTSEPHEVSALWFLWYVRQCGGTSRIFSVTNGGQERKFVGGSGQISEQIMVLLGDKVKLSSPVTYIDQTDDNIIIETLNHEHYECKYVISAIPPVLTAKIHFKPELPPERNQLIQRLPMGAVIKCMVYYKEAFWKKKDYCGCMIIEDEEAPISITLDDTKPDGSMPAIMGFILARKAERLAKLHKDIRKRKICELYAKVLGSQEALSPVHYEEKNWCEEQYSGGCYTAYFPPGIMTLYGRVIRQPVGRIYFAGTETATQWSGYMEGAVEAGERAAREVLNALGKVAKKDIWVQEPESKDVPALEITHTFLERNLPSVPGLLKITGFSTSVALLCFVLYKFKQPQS

[2] = biological target: T2, CYP2D10 (Mus musculus, UniProt P24456)
T2 construct: native, in intact mouse liver pieces
T2 sequence (P24456 1-504): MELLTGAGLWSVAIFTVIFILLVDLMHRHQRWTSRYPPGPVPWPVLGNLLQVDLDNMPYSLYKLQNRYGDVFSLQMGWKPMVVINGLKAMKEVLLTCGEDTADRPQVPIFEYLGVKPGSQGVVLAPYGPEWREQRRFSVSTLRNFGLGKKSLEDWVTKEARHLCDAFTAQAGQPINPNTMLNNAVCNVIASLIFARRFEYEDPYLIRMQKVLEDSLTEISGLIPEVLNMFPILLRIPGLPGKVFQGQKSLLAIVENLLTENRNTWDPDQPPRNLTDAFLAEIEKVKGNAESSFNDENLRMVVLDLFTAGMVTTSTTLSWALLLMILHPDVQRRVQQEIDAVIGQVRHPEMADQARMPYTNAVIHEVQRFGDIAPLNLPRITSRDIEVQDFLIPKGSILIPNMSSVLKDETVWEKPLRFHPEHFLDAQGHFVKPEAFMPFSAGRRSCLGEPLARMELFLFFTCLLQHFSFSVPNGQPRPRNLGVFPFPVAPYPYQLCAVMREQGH

[3] = biological target: T3, glycerol-3-phosphate dehydrogenase mitochondrial (GPD2) (Mus musculus, UniProt Q64521)
T3 construct: native, in intact mouse liver pieces
T3 sequence (Q64521 43-727): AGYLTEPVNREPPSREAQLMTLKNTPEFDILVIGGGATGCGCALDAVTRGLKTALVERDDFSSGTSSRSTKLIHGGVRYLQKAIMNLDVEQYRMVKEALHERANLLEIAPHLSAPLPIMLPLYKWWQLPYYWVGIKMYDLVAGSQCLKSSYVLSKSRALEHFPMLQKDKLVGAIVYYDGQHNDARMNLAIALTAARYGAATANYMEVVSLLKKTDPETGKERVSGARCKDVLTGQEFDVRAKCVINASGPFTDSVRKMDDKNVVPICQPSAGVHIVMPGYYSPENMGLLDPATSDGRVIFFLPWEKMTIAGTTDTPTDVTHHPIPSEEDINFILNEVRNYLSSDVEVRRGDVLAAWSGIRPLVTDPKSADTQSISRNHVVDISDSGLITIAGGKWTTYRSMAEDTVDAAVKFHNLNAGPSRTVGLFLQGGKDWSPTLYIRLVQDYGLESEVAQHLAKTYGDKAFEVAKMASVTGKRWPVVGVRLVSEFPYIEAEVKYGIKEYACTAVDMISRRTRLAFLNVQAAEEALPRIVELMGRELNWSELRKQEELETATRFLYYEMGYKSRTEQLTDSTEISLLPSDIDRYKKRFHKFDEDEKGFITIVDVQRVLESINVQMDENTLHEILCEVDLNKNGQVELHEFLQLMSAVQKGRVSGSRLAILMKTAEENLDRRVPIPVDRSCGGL

[4] = biological target: T4, choline dehydrogenase (CHDH, mCHDH) (Mus musculus, UniProt Q8BJ64)
T4 construct: native, in intact mouse liver pieces
T4 sequence (Q8BJ64 35-596): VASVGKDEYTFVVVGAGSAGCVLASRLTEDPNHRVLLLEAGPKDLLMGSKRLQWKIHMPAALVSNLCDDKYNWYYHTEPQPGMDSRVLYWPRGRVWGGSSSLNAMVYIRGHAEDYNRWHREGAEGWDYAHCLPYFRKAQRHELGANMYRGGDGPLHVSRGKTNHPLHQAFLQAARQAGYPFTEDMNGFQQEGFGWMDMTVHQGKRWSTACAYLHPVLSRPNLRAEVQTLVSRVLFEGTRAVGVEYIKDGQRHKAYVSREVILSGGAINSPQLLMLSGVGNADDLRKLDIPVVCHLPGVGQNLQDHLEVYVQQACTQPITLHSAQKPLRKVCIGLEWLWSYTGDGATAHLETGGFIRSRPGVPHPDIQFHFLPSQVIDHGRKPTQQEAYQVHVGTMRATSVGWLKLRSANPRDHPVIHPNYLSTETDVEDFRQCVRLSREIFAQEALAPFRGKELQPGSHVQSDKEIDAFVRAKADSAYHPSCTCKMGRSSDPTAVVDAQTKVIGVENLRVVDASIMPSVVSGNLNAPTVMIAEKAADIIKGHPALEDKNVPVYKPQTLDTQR

[5] = biological target: T5, aldehyde oxidase 1 (AOX1) (Mus musculus, UniProt O54754)
T5 construct: native, in intact mouse liver pieces
T5 sequence (O54754 1-1333): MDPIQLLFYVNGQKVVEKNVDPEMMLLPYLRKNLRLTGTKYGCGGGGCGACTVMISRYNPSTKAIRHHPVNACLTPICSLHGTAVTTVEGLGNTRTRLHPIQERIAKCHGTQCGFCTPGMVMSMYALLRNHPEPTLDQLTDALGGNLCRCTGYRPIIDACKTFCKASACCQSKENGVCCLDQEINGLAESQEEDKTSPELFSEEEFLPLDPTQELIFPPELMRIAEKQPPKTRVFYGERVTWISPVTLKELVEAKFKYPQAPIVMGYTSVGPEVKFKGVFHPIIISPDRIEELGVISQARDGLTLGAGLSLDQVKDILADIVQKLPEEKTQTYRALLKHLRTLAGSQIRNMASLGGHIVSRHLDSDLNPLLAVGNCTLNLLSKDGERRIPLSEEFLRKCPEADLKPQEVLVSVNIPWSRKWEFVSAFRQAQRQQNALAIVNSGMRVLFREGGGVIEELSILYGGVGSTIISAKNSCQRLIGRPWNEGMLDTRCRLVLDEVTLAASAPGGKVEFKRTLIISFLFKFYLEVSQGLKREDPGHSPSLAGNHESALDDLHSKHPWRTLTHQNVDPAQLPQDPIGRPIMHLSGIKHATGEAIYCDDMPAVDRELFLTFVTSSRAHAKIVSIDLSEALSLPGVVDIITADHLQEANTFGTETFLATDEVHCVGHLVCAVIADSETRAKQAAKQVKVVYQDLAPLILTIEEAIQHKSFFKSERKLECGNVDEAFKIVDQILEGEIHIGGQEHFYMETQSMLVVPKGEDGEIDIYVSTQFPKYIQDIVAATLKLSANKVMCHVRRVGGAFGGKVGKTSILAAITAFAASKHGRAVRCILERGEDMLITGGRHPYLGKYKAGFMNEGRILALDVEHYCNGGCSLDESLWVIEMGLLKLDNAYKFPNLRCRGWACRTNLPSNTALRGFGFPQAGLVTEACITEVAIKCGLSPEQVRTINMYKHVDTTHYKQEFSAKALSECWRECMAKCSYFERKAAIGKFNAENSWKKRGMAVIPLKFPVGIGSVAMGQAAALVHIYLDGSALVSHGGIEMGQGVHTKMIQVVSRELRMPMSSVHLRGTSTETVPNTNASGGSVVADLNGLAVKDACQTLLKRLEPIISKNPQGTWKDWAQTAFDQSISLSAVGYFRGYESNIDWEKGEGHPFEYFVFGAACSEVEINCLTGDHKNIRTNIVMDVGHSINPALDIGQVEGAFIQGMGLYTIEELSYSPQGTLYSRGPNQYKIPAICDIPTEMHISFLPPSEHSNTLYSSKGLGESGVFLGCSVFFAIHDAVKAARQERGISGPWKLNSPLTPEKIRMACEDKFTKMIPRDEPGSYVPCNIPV

**Q.** How did the “covalent labelling, streptavidin enrichment, LC-MS/MS” value (shortened to “covalent labelling”) [1] turn out when [N-]=[N+]=NCCOCCOCCOCCNC(=O)c1ccc2c(c1)-c1ccccc1[Br+]2 [3fb, diphenylenebromonium probe 3fb] was run?
**A.** MAOA exclusively by diarylbromonium probe 3fb

**Q.** With [N-]=[N+]=NCCCCCCCCCCNC(=O)c1ccc2c(c1)[Br+]c1ccccc1-2 [3ga, diphenylenebromonium-based probe 3ga] as the compound, how does the “covalent labelling” value [2] read?
**A.** two significantly enriched CYP450s (CYP27A1, CYP2D10)

**Q.** And the “covalent labelling” value [3]?
**A.** GPD2 was exclusively enriched by diarylbromonium probe 3ga

**Q.** How did the “covalent labelling” value [4] turn out when [N-]=[N+]=NCCCCCCCCCCNC(=O)c1ccc2c(c1)-c1ccccc1[Cl+]2 [3ha, diphenylenechloronium-based probe 3ha] was run?
**A.** choline dehydrogenase (CHDH), which is similar to the bacterial choline oxidase

**Q.** Which “covalent labelling” value [5] does the source give for [N-]=[N+]=NCCCCCCCCCCNC(=O)c1ccc2c(c1)[I+]c1ccccc1-2 [3da, diphenyleneiodonium-based probe 3da] here?
**A.** five are oxidoreductases (CYP27A1, CYP2D10, CYP3A25, HMOX2, and AOX1)
